Consider 25 compounds from US8546377B2 (AbbVie Inc., priority 2009, dated 2013).

Molecules are shown by their SMILES.

For this assay, the target named is T1, h-5-HT6 receptor (Homo sapiens, UniProt P50406).
T1 construct: expressed in transfected cells; host or cells: HEK293 cells (membrane preparation)
T1 sequence (P50406 whole entry): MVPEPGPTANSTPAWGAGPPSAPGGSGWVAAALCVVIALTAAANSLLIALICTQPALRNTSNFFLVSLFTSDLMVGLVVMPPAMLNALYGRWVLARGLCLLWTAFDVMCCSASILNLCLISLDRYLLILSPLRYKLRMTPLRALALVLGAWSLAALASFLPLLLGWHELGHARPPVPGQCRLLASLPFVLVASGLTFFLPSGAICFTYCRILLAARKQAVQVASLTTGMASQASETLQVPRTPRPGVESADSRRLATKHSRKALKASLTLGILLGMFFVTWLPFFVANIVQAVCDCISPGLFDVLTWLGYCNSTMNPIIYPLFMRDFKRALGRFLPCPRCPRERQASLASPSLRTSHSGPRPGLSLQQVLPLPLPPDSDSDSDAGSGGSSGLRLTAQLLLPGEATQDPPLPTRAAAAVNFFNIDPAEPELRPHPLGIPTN
In words: Human 5-HT6 receptor radioligand binding assay ([3H]-LSD, HEK293 membranes). As to conditions: HEK293 membranes, 1 nM [3H]-lysergic acid diethylamide, 3.5 hours at room temperature; read-out: Ki (μM), 5-HT6 Agonist Site Radioligand Binding. The method, then: (iv) Human 5-HT6 Receptor Radioligand Binding Assay
Preparation of Membranes by Ultrasonic Treatment and Differential Centrifugation
Cells from stable clonal cell lines expressing the corresponding receptor (5-HT6) were washed with PBS (without Ca^++, Mg^++) and harvested in PBS with 0.02% EDTA. The cells were collected by centrifugation at 500 g for 10 minutes at 4° C., washed with PBS and centrifuged (500 g, 10 minutes at 4° C.). The pellets were stored at −80° C. until use. For membrane preparation, the thawed cell pellet was resuspended in ice-cold sucrose buffer (0.25 M sucrose, 10 mM HEPES (pH 7.4), 1 mM phenylmethylsulfonyl fluoride (PMSF) in DMSO, 5 μg/ml Pepstatin-A, 3 mM EDTA, 0.025% Bacitracin) and homogenized with a Branson Sonifier W-250 (Settings: Timer 4; Output Control 3; Duty Cycle constant; 2 to 3 cycles). Cell disruption was checked with the aid of a microscope. Remaining unbroken cells were pelleted at 1,000 g for 10 minutes at 4° C. The sucrose buffer supernatant was then centrifuged at 60,000 g for 1 hour at 4° C. (Beckman Ultrazentrifuge XL 80). The pellet was resuspended in 30 mL of ice-cold Tris buffer (20 mM TRIS (pH 7.4), 5 μg/mL Pepstatin A, 0.1 mM PMSF, 3 mM EDTA) by pipetting through a 10 mL serological pipet and centrifuged for 1 hour at 4° C. at 60,000 g. A final resuspension was performed in a small volume of ice-cold Tris buffer (see above) by pressing through a serological pipet followed by ultrasonic treatment with a Branson Sonifier W-250 (Settings: Timer 1; Output Control 3; Duty Cycle constant; 1 cycle). Protein concentration was determined (BCA-Kit; Pierce) and aliquots stored at −80° C. or in liquid nitrogen for long-term storage.
Receptor Binding Experiments
All receptor binding experiments were carried out in the corresponding assay buffer in a total volume of 200 μL in the presence of various concentrations of test compound (10^−5 M to 10^−9 M, tenfold serial dilution, duplicate determinations). The assays were terminated by filtration on polyethylenimine (PEI 0.1% or 0.3%) presoaked Packard Unifilter Plates (GF/C or GF/B) with a Tomtec MachIII U 96 well-plate harvester. After the plates had been dried for 2 hours at 55° C. in a drying chamber scintillation cocktail (BetaPlate Scint; PerkinElmer) was added. Radioactivity was measured in a Microbeta Trilux two hours after the addition of the scintillation mixture.
5-HT6 Receptor Binding Assay
HEK293 cells stably expressing the h-5-HT6 receptor (NCBI Reference Sequence XM 001435) were cultured in RPMI1640 medium supplemented with 25 mM HEPES, 10% fetal calf serum and 1-2 mM glutamine. The membrane preparation was performed as described above. […] On the day of the assay, the membranes were thawed, diluted in assay buffer (50 mM Tris-HCl, 5 mM CaCl2, 0.1% ascorbic acid, 10 μM pargyline, pH 7.4) to a concentration of 8 μg protein/assay and homogenized by gentle vortexing. […] Non-specific binding was defined with 1 μM methiothepin. The binding reaction was carried out for 3.5 hours at room temperature. During the incubation, the plates were shaken on a plate shaker at 100 rpm and terminated by filtration on Packard Unifilter GF/C (0.1% PEI) plates, followed by 2 wash cycles with ice-cold 50 mM Tris-HCl, 5 mM CaCl2.
Data derived from liquid scintillation counting were analyzed by iterative non-linear regression analysis with the use of the Statistical Analysis System (SAS): a program similar to “LIGAND” as described by Munson and Rodbard (Anal. Biochem. 1980, 107, 220-239). Fitting was performed according to formulae described by Feldman (Anal. Biochem. 1972, 48, 317-338). IC50, nH and Ki values were expressed as geometrical mean.
The results of the receptor binding studies are expressed as receptor binding constants Ki(5-HT6) as described herein before, and given in Table 5.
As for `O=C1CC2CNCCN2c2ccc(NS(=O)(=O)c3ccc(Cl)s3)cc2N1` (stereo not shown) [Example 127, 5-chloro-N-(6-oxo-1,2,3,4,4a,5,6,7-octahydropyrazino[1,2-a][1,5]benzodiazepin-9-yl)thiophene-2-sulfonamide], the Ki (usually a measure of affinity in units of concentration, obtained from inhibition or displacement) worked out at 0.0443 µM.

On to `Cc1cc(C)cc(S(=O)(=O)Nc2ccc3c(c2)NC(=O)CC2CNCCN32)c1` (stereo not shown) [Example 129, 3,5-dimethyl-N-(6-oxo-1,2,3,4,4a,5,6,7-octahydropyrazino[1,2-a][1,5]benzodiazepin-9-yl)benzenesulfonamide], for which the Ki came to 0.0132 µM.

Turning to `O=C1CC2CNCCN2c2ccc(NS(=O)(=O)c3ccc(Cl)cc3)cc2N1` (stereo not shown) [Example 102, 4-chloro-N-(6-oxo-1,2,3,4,4a,5,6,7-octahydropyrazino[1,2-a][1,5]benzodiazepin-9-yl)benzenesulfonamide], the Ki was 0.0092 µM. Under `O=C1CC2CNCCN2c2ccc(NS(=O)(=O)c3ccccc3-c3ccccc3)cc2N1` (stereo not shown) [Example 97, N-(6-oxo-1,2,3,4,4a,5,6,7-octahydropyrazino[1,2-a][1,5]benzodiazepin-9-yl)biphenyl-2-sulfonamide] stands 0.0024 µM; under `O=C1CC2CNCCN2c2ccc(NS(=O)(=O)c3c(F)cccc3F)cc2N1` (stereo not shown) [Example 123, 2,6-difluoro-N-(6-oxo-1,2,3,4,4a,5,6,7-octahydropyrazino[1,2-a][1,5]benzodiazepin-9-yl)benzenesulfonamide], 0.0583 µM; under `Cc1ccc(S(=O)(=O)Nc2ccc3c(c2)NC(=O)CC2CNCCN32)cc1` (stereo not shown) [Example 99, 4-methyl-N-(6-oxo-1,2,3,4,4a,5,6,7-octahydropyrazino[1,2-a][1,5]benzodiazepin-9-yl)benzenesulfonamide], 0.0221 µM.

Take `Cc1ccc(C)c(S(=O)(=O)Nc2ccc3c(c2)NC(=O)CC2CNCCN32)c1` (stereo not shown) [Example 125, 2,5-dimethyl-N-(6-oxo-1,2,3,4,4a,5,6,7-octahydropyrazino[1,2-a][1,5]benzodiazepin-9-yl)benzenesulfonamide]: the Ki was 0.0156 µM.

`O=C1CC2CNCCN2c2ccc(NS(=O)(=O)c3c(Cl)cccc3Cl)cc2N1` (stereo not shown) [Example 119, 2,6-dichloro-N-(6-oxo-1,2,3,4,4a,5,6,7-octahydropyrazino[1,2-a][1,5]benzodiazepin-9-yl)benzenesulfonamide]: the Ki turned out to be 0.0378 µM. Under `COc1ccccc1S(=O)(=O)Nc1ccc2c(c1)NC(=O)CC1CNCCN21` (stereo not shown) [Example 106, 2-methoxy-N-(6-oxo-1,2,3,4,4a,5,6,7-octahydropyrazino[1,2-a][1,5]benzodiazepin-9-yl)benzenesulfonamide] stands 0.026 µM; under `O=C1CC2CNCCN2c2ccc(NS(=O)(=O)c3ccc(F)cc3)cc2N1` (stereo not shown) [Example 105, 4-fluoro-N-(6-oxo-1,2,3,4,4a,5,6,7-octahydropyrazino[1,2-a][1,5]benzodiazepin-9-yl)benzenesulfonamide], 0.0208 µM; under `O=C1CC2CNCCN2c2ccc(NS(=O)(=O)c3cccc(F)c3)cc2N1` (stereo not shown) [Example 104, 3-fluoro-N-(6-oxo-1,2,3,4,4a,5,6,7-octahydropyrazino[1,2-a][1,5]benzodiazepin-9-yl)benzenesulfonamide], 0.0596 µM.

As for `Cc1cccc(S(=O)(=O)Nc2ccc3c(c2)NC(=O)CC2CNCCN32)c1` (stereo not shown) [Example 100, 3-methyl-N-(6-oxo-1,2,3,4,4a,5,6,7-octahydropyrazino[1,2-a][1,5]benzodiazepin-9-yl)benzenesulfonamide], the Ki turned out to be 0.0475 µM.

On to `O=C1CC2CNCCN2c2ccc(NS(=O)(=O)c3cccc(Cl)c3)cc2N1` (stereo not shown) [Example 101, 3-chloro-N-(6-oxo-1,2,3,4,4a,5,6,7-octahydropyrazino[1,2-a][1,5]benzodiazepin-9-yl)benzenesulfonamide], for which the Ki came to 0.0223 µM. Under `O=C1CC2CNCCN2c2ccc(NS(=O)(=O)c3ccc4ccccc4c3)cc2N1` (stereo not shown) [Example 128, N-(6-oxo-1,2,3,4,4a,5,6,7-octahydropyrazino[1,2-a][1,5]benzodiazepin-9-yl)naphthalene-2-sulfonamide] stands 0.0043 µM; under `O=C1CC2CNCCN2c2ccc(NS(=O)(=O)c3cccc(OC(F)(F)F)c3)cc2N1` (stereo not shown) [Example 120, N-(6-oxo-1,2,3,4,4a,5,6,7-octahydropyrazino[1,2-a][1,5]benzodiazepin-9-yl)-3-(trifluoromethoxy)benzenesulfonamide], 0.0183 µM.

`O=C1CC2CNCCN2c2ccc(NS(=O)(=O)c3ccccc3F)cc2N1` (stereo not shown) [Example 103, 2-fluoro-N-(6-oxo-1,2,3,4,4a,5,6,7-octahydropyrazino[1,2-a][1,5]benzodiazepin-9-yl)benzenesulfonamide]: the Ki turned out to be 0.0299 µM. Under `COc1cccc(S(=O)(=O)Nc2ccc3c(c2)NC(=O)CC2CNCCN32)c1` (stereo not shown) [Example 107, 3-methoxy-N-(6-oxo-1,2,3,4,4a,5,6,7-octahydropyrazino[1,2-a][1,5]benzodiazepin-9-yl)benzenesulfonamide] stands 0.022 µM; under `N#Cc1cccc(S(=O)(=O)Nc2ccc3c(c2)NC(=O)CC2CNCCN32)c1` (stereo not shown) [Example 122, 3-cyano-N-(6-oxo-1,2,3,4,4a,5,6,7-octahydropyrazino[1,2-a][1,5]benzodiazepin-9-yl)benzenesulfonamide], 0.19 µM; under `COc1ccc(S(=O)(=O)Nc2ccc3c(c2)NC(=O)CC2CNCCN32)cc1` (stereo not shown) [Example 108, 4-methoxy-N-(6-oxo-1,2,3,4,4a,5,6,7-octahydropyrazino[1,2-a][1,5]benzodiazepin-9-yl)benzenesulfonamide], 0.0669 µM. With `O=C1CC2CNCCN2c2ccc(NS(=O)(=O)c3ccccc3OC(F)(F)F)cc2N1` (stereo not shown) [Example 130, N-(6-oxo-1,2,3,4,4a,5,6,7-octahydropyrazino[1,2-a][1,5]benzodiazepin-9-yl)-2-(trifluoromethoxy)benzenesulfonamide], the Ki was 0.0181 µM. The figure for `O=C1CC2CNCCN2c2ccc(NS(=O)(=O)c3ccccc3C(F)(F)F)cc2N1` (stereo not shown) [Example 126, N-(6-oxo-1,2,3,4,4a,5,6,7-octahydropyrazino[1,2-a][1,5]benzodiazepin-9-yl)-2-(trifluoromethyl)benzenesulfonamide] is 0.0234 µM; for `O=C1CC2CNCCN2c2ccc(NS(=O)(=O)c3cccs3)cc2N1` (stereo not shown) [Example 109, N-(6-oxo-1,2,3,4,4a,5,6,7-octahydropyrazino[1,2-a][1,5]benzodiazepin-9-yl)thiophene-2-sulfonamide] it is 0.0556 µM. Under `N#Cc1ccc(S(=O)(=O)Nc2ccc3c(c2)NC(=O)CC2CNCCN32)cc1` (stereo not shown) [Example 121, 4-cyano-N-(6-oxo-1,2,3,4,4a,5,6,7-octahydropyrazino[1,2-a][1,5]benzodiazepin-9-yl)benzenesulfonamide] stands 0.621 µM. The figure for `O=C1CC2CNCCN2c2ccc(NS(=O)(=O)c3cccc4ccccc34)cc2N1` (stereo not shown) [Example 124, N-(6-oxo-1,2,3,4,4a,5,6,7-octahydropyrazino[1,2-a][1,5]benzodiazepin-9-yl)napthalene-1-sulfonamide] is 0.0068 µM; for `Cc1ccccc1S(=O)(=O)Nc1ccc2c(c1)NC(=O)CC1CNCCN21` (stereo not shown) [Example 98, 2-methyl-N-(6-oxo-1,2,3,4,4a,5,6,7-octahydropyrazino[1,2-a][1,5]benzodiazepin-9-yl)benzenesulfonamide] it is 0.0224 µM.
